Data on 13 compounds can be found in patent US20120058999A1, “Substituted Tetrahydropyrrolopyrazine Compounds” (Gruenenthal GmbH, priority 2010, published 2012).

The target in one test is T1, rat B1R (Rattus norvegicus, UniProt P97583).
T1 construct: expressed in transfected cells; host or cells: CHO K1 cells (stably transfected)
T1 sequence (P97583 1-337): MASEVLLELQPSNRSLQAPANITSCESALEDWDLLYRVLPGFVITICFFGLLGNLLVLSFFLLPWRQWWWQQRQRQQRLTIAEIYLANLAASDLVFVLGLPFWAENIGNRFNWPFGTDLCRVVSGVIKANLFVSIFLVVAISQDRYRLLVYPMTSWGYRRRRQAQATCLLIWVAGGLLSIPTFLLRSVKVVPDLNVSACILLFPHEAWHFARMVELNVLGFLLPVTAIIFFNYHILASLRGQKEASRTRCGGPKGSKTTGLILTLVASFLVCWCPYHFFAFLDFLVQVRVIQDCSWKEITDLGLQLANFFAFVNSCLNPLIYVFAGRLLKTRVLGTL
The test can be described thus: Functional investigation on the bradykinin 1 receptor, cell-based fluorescent calcium-mobilization assay (FLIPR), rat. Conditions: 10 μM test substance; CHO K1 cells transfected with rat B1R gene; agonist Des-Arg9-bradykinin at EC80; % of maximum achievable inhibition. The method, then: (§1) The agonistic or antagonistic action of substances can be quantified on the bradykinin 1 receptor (B1R) of the human and rat species with ectopically expressing cell lines (CHO K1 cells) and with the aid of a Ca2+-sensitive dye (Fluo-4) using a fluorescent imaging plate reader (FLIPR). The value in % activation is based on the Ca2+ signal after addition of Lys-Des-Arg9 bradykinin (0.5 nM) or Des-Arg9 bradykinin (100 nM). Antagonists lead to a suppression of the Ca2+ influx following administration of the agonist. The % inhibition in comparison with the maximum achievable inhibition is indicated.
(§2) The agonistic or antagonistic action of substances can be determined on the bradykinin 1 receptor (B1R) of humans and rats by means of a cell-based fluorescent calcium-mobilization assay. According to this assay agonist-induced increase of intracellular free Ca^2+ is quantified by means of a Ca^2+-sensitive dye (Fluo-4 type, Molecular Probes Europe BV, Leiden, Netherlands), in a Fluorescent Imaging Plate Reader (FLIPR, Molecular Devices, Sunnyvale, USA) and/or the Novostar (BMG Labtech GmbH, Offenburg, Germany).
(§3) Chinese hamster ovary cells (CHO K1 cells), which are stably transfected with the human B1R gene (hB1R cells), or with the B1R gene of rats (rB1R cells) are used. For functional investigations these cells are seeded into black 96-well plates with a clear bottom (BD Biosciences, Heidelberg, Germany or Greiner, Frickenhausen, Germany) in a density of 20,000-35,000 cells/well. The cells are incubated overnight in a humidified atmosphere at 37° C. and 5% CO2 in culture medium (hB1R cells: Nutrient Mixture Ham's F12, Gibco Invitrogen GmbH, Karlsruhe, Germany or DMEM, Sigma-Aldrich, Taufkirchen, Germany; rB1R cells: D-MEM/F12, Gibco Invitrogen GmbH, Karlsruhe, Germany) with 10 vol. % FBS (foetal bovine serum, Gibco Invitrogen GmbH, Karlsruhe, Germany). On the following day the cells are loaded with the Ca^2+-sensitive dye Fluo-4-AM (Molecular Probes Europe BV, Leiden, Netherlands):
(§4) Method A: The medium of the cells is removed and cell plates are incubated with loading solution, which contains 2.13 μM Fluo-4-AM, 2.5 mM probenecid (Sigma-Aldrich, Taufkirchen, Germany), and 10 mM HEPES (Sigma-Aldrich, Taufkirchen, Germany) in HBSS buffer (Hank's buffered saline solution, Gibco Invitrogen GmbH, Karlsruhe, Germany) for 60 minutes at 37° C. After the plates are washed twice with HBSS buffer, HBSS buffer supplemented 0.1% BSA (bovine serum albumin; Sigma-Aldrich, Taufkirchen, Germany), 5.6 mM glucose and 0.05% gelatine (Merck KGaA, Darmstadt, Germany) is added. Cell plates are incubated for at least 20 minutes in the dark at room temperature before they are used for the Ca^2+ measurement in the FLIPR or Novostar. Method B: The plates are washed with buffer A (15 mM HEPES, 80 mM NaCl, 5 mM KCl, 1.2 mM CaCl2, 0.7 mM MgSO4, 2 mg/ml glucose, 2.5 mM probenecid) and subsequently loaded with buffer A containing 2.4 μM Fluo-4-AM and 0.025% pluronic F127 (Sigma-Aldrich, Taufkirchen, Germany) for 60 minutes at 37° C. Cell plates are washed twice with buffer A. Then, buffer A supplemented with 0.05% BSA and 0.05% gelatine is added and cell plates are incubated in the dark at room temperature for at least 20 minutes before measurement in the FLIPR or Novostar is started.
(§5) The Ca^2+-dependent fluorescence is measured both before and after the addition of substances (λex=488 nm, λem=540 nm). For quantification of the effect the highest fluorescence intensity (FC, fluorescence counts) over time is given.
(§6) The FLIPR protocol consists of two substance additions, done within the instrument while continuously monitoring the Ca^2+-dependent fluorescence at 540 nm. When the Novostar was used, one addition had to be done outside the instrument. First of all test substances (10 μM) are pipetted onto the cells and the intracellular Ca^2+ rise is compared with the control (hB1R: Lys-Des-Arg9-bradykinin >=50 nM; rB1R: Des-Arg9-bradykinin >=1 μM). […]

For a further test, the target named is T2, human B1R (Homo sapiens, UniProt P46663).
T2 construct: expressed in transfected cells; host or cells: CHO K1 cells (stably transfected)
T2 sequence (P46663 1-353): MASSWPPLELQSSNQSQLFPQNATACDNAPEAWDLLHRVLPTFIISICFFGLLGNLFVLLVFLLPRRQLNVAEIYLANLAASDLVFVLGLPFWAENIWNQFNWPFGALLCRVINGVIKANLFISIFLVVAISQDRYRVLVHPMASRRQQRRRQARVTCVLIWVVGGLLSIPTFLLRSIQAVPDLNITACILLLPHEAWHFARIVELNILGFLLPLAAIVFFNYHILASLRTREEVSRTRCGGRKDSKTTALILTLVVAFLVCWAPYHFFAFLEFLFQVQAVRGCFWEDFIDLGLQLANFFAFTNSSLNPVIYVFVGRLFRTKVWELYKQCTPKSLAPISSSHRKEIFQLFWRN
Put plainly: Functional investigation on the bradykinin 1 receptor, cell-based fluorescent calcium-mobilization assay (FLIPR), human. To be noted: 10 μM test substance; CHO K1 cells transfected with human B1R gene; agonist Lys-Des-Arg9-bradykinin at EC80; % of maximum achievable inhibition. The method, then:
as §1, §2, §3, §4, §5, §6

For the compound `CN1CCN(C2CC(N(C)C(=O)CCC3c4cccn4CCN3S(=O)(=O)c3cccc(C(F)(F)F)c3)C2)CC1` (centres unmarked) [CC-61, N-Methyl-N-[3-(4-methyl-piperazin-1-yl)-cyclobutyl]-3-[2-[[3-(trifluoromethyl)phenyl]sulfonyl]-1,2,3,4-tetrahydro-pyrrolo[1,2-a]pyrazin-1-yl]-propionamide], the inhibition (commonly the drop in the measured response relative to a control, in per cent) at 10 µM at rat B1R was determined as 14%; at human B1R, 12%.

Regarding `Cc1cc(S(=O)(=O)N2CCn3cccc3C2CCC(=O)N(C)[C@H]2CCC[C@@H](N3CCN(C)CC3)C2)c(C)cc1Cl` (stereo partly drawn) [SC-03, 3-[2-[(4-Chloro-2,5-dimethyl-phenyl)sulfonyl]-1,2,3,4-tetrahydro-pyrrolo[1,2-a]pyrazin-1-yl]-N-methyl-N-[(1S,3R)-3-(4-methyl-piperazin-1-yl)-cyclohexyl]-propionamide], the inhibition at 10 µM at rat B1R was 61%; on human B1R, 95%.

Turning to `COc1cc(C)c(S(=O)(=O)N2CCn3cccc3C2CCCC(=O)N[C@H]2CCC[C@@H](N3CCN(C)CC3)C2)c(C)c1` (relative stereo) [CC-07, 4-[2-[(4-Methoxy-2,6-dimethyl-phenyl)sulfonyl]-1,2,3,4-tetrahydro-pyrrolo[1,2-a]pyrazin-1-yl]-N-[cis-3-(4-methyl-piperazin-1-yl)-cyclohexyl]-butyramide], the inhibition at 10 µM is 101% on rat B1R and 86% on human B1R.

For `COc1cc(C)c(S(=O)(=O)N2CCn3cccc3C2COCC(=O)N[C@H]2CCC[C@@H](N3CCN(C)CC3)C2)c(C)c1` (relative stereo) [CC-06, 2-[[2-[(4-Methoxy-2,6-dimethyl-phenyl)sulfonyl]-1,2,3,4-tetrahydro-pyrrolo[1,2-a]pyrazin-1-yl]-methoxy]-N-[cis-3-(4-methyl-piperazin-1-yl)-cyclohexyl]-acetamide], the results for the inhibition at 10 µM at rat B1R and at human B1R were 100% and 96%, respectively.

Take `COc1cc(C)c(S(=O)(=O)N2CCn3cccc3C2CCCC(=O)N(C)C2CC(N3CCN(C)CC3)C2)c(C)c1` (centres unmarked) [CC-59, 4-[2-[(4-Methoxy-2,6-dimethyl-phenyl)sulfonyl]-1,2,3,4-tetrahydro-pyrrolo[1,2-a]pyrazin-1-yl]-N-methyl-N-[3-(4-methyl-piperazin-1-yl)-cyclobutyl]-butyramide]: the inhibition at 10 µM at rat B1R came to 97%; on human B1R it was 80%.

On to `COc1cc(C)c(S(=O)(=O)N2CCn3cccc3C2COCC(=O)N(C)C2CCC(N3CCN(C)CC3)CC2)c(C)c1` (centres unmarked) [SC-05, 2-[[2-[(4-Methoxy-2,6-dimethyl-phenyl)sulfonyl]-1,2,3,4-tetrahydro-pyrrolo[1,2-a]pyrazin-1-yl]-methoxy]-N-methyl-N-[4-(4-methyl-piperazin-1-yl)-cyclohexyl]-acetamide], for which the inhibition at 10 µM on rat B1R stood at 100%; on human B1R it was 101%.

As to `CN1CCN([C@@H]2CCC[C@H](NC(=O)CCC3c4cccn4CCN3S(=O)(=O)c3cccc(C(F)(F)F)c3)C2)CC1` (relative stereo) [CC-10, N-[cis-3-(4-Methyl-piperazin-1-yl)-cyclohexyl]-3-[2-[[3-(trifluoromethyl)phenyl]sulfonyl]-1,2,3,4-tetrahydro-pyrrolo[1,2-a]pyrazin-1-yl]-propionamide], the inhibition at 10 µM turned out to be 36% on rat B1R and 29% at human B1R.

`COc1cc(C)c(S(=O)(=O)N2CCn3cccc3C2COCC(=O)N(C)[C@H]2CCC[C@@H](N3CCN(C)CC3)C2)c(C)c1` (relative stereo) [CC-01, 2-[[2-[(4-Methoxy-2,6-dimethyl-phenyl)sulfonyl]-1,2,3,4-tetrahydro-pyrrolo[1,2-a]pyrazin-1-yl]-methoxy]-N-methyl-N-[cis-3-(4-methyl-piperazin-1-yl)-cyclohexyl]-acetamide]: the values for the inhibition at 10 µM at rat B1R and on human B1R were 105% and 100%, respectively.

`COc1cc(C)c(S(=O)(=O)N2CCn3c(C)ccc3C2COCC(=O)N(C)[C@H]2CCC[C@@H](N3CCN(C)CC3)C2)c(C)c1` (stereo partly drawn) [SC-06, 2-[[2-[(4-Methoxy-2,6-dimethyl-phenyl)sulfonyl]-6-methyl-1,2,3,4-tetrahydro-pyrrolo[1,2-a]pyrazin-1-yl]-methoxy]-N-methyl-N-[(1S,3R)-3-(4-methyl-piperazin-1-yl)-cyclohexyl]-acetamide]: the inhibition at 10 µM came to 110% at rat B1R and 97% at human B1R.

`COc1cc(C)c(S(=O)(=O)N2CCn3cccc3C2COCC(=O)N(C)[C@H]2CCC[C@@H](N3CCN(C)CC3)C2)c(C)c1` (stereo partly drawn) [SC-01, 2-[[2-[(4-Methoxy-2,6-dimethyl-phenyl)sulfonyl]-1,2,3,4-tetrahydro-pyrrolo[1,2-a]pyrazin-1-yl]-methoxy]-N-methyl-N-[(1S,3R)-3-(4-methyl-piperazin-1-yl)-cyclohexyl]-acetamide]: the inhibition at 10 µM on rat B1R came out at 103%; on human B1R it was 100%.

As for `Cc1cccc(Cl)c1S(=O)(=O)N1CCn2cccc2C1COCC(=O)N(C)[C@H]1CCC[C@@H](N2CCN(C)CC2)C1` (stereo partly drawn) [SC-02, 2-[[2-[(2-Chloro-6-methyl-phenyl)sulfonyl]-1,2,3,4-tetrahydro-pyrrolo[1,2-a]pyrazin-1-yl]-methoxy]-N-methyl-N-[(1S,3R)-3-(4-methyl-piperazin-1-yl)-cyclohexyl]-acetamide], the inhibition at 10 µM amounted to 105% at rat B1R and 100% at human B1R.

As to `COc1ccc2cc(S(=O)(=O)N3CCn4cccc4C3CC(=O)N(C)C3CC(N4CCN(C)CC4)C3)ccc2c1` (centres unmarked) [CC-60, 2-[2-[(6-Methoxy-naphthalen-2-yl)sulfonyl]-1,2,3,4-tetrahydro-pyrrolo[1,2-a]pyrazin-1-yl]-N-methyl-N-[3-(4-methyl-piperazin-1-yl)-cyclobutyl]-acetamide], the inhibition at 10 µM at rat B1R stood at 106%; at human B1R, 99%.

As to `COc1ccc2cc(S(=O)(=O)N3CCn4cccc4C3CC(=O)N(C)[C@H]3CCC[C@@H](N4CCN(C)CC4)C3)ccc2c1` (relative stereo) [CC-04, 2-[2-[(6-Methoxy-naphthalen-2-yl)sulfonyl]-1,2,3,4-tetrahydro-pyrrolo[1,2-a]pyrazin-1-yl]-N-methyl-N-[cis-3-(4-methyl-piperazin-1-yl)-cyclohexyl]-acetamide], the inhibition at 10 µM at rat B1R was determined as 103%; at human B1R it was 100%.
